{"source": "patent US6010721A", "about": "“Glycyrrhetinic-acid-like factor” (The Miriam Hospital, priority 1996, dated 2000)", "key": {"[1]": {"biological_target": "T1, 11β-hydroxysteroid dehydrogenase (11β-OHSD) (Rattus norvegicus, UniProt P16232)", "T1 sequence (P16232 whole entry)": "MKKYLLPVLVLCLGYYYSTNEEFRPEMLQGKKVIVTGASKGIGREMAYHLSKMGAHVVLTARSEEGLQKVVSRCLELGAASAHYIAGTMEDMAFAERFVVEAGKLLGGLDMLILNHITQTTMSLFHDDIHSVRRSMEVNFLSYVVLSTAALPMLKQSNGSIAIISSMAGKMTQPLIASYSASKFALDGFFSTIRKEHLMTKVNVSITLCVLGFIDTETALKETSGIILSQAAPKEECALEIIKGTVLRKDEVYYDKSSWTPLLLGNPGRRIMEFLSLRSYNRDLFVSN", "assay": "Screening of endogenous substances for inhibition of 11β-OHSD (Example III)", "format": "biochemical", "conditions": "endogenous substances screened", "description": "(§1) Various endogenous substances which bear similar structural resemblances to glycyrrhetinic acid (GA) were screened for inhibitory activity against 11β-hydroxysteroid dehydrogenase (11β-OHSD) and 5β-reductase (5β-R)."}, "5β-reductase (5β-R)": {"biological_target": "T2, 5β-reductase (5β-R) (Rattus norvegicus, UniProt P31210)", "T2 construct": "[3H]-aldosterone reduction with NADPH", "T2 sequence (P31210 1-326)": "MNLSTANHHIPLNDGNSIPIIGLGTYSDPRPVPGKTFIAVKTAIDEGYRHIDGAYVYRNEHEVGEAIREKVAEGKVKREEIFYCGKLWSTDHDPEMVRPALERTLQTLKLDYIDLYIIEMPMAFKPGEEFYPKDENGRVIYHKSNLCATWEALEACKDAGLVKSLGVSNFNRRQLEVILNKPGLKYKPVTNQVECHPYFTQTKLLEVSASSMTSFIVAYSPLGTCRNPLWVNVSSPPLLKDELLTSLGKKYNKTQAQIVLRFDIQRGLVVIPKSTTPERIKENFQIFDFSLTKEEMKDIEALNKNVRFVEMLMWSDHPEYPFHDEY", "assay": "Screening of endogenous substances for inhibition of 5β-reductase (Example III)", "format": "biochemical", "conditions": "endogenous substances screened", "description": "as §1"}, "adrenalectomized rats": {"system": "adrenalectomized rats", "assay": "Mineralocorticoid action conferred upon corticosterone in adrenalectomized rats (Example III)", "format": "in vivo", "description": "3α,5β-THDOC and bile acids were also treated to determine whether, like GA, they could confer mineralocorticoid (MC) actions upon corticosterone."}, "[2]": {"system": "adrenalectomized male rats", "conditions": "cited from earlier work"}, "steroid 5β-reductase": {"system": "steroid 5β-reductase", "conditions": "incubated with enzyme; cited from earlier work"}, "[3]": {"biological_target": "T1, 11β-hydroxysteroid dehydrogenase (11β-OHSD)", "conditions": "incubated with enzyme; cited from earlier work"}}, "note": "Entries after “also recorded” stand apart in the source; their conditions may differ."}
{"smiles": "C[C@H](CCC(=O)O)[C@H]1CC[C@H]2[C@@H]3[C@H](O)C[C@@H]4C[C@H](O)CC[C@]4(C)[C@H]3C[C@H](O)[C@]12C", "note": "[CA, cholic acid]", "values": [{"measurement": "inhibition of 11β-OHSD (potency in words)", "setting": "[1]", "result": "moderate inhibitor"}, {"measurement": "inhibition of 5β-R (potency in words)", "setting": "5β-reductase (5β-R)", "result": "weak inhibitors"}]}
{"smiles": "C[C@H](CCC(=O)O)[C@H]1CC[C@H]2[C@@H]3CC[C@@H]4C[C@H](O)CC[C@]4(C)[C@H]3C[C@H](O)[C@]12C", "note": "[DCA, deoxycholic acid]", "values": [{"measurement": "inhibition of 11β-OHSD (potency in words)", "setting": "[1]", "result": "weak inhibitor"}, {"measurement": "inhibition of 5β-R (potency in words)", "setting": "5β-reductase (5β-R)", "result": "moderate inhibitor"}]}
{"smiles": "C[C@H](CCC(=O)O)[C@H]1CC[C@H]2[C@@H]3[C@H](O)C[C@@H]4C[C@H](O)CC[C@]4(C)[C@H]3CC[C@]12C", "note": "[CDCA, chenodeoxycholic acid]", "values": [{"measurement": "inhibition of 11β-OHSD (potency in words)", "setting": "[1]", "result": "most potent inhibitor; also recorded: inhibit both 11β-OHSD and 5β-R activity"}, {"measurement": "antinatriuresis caused by corticosterone after pretreatment", "setting": "adrenalectomized rats; adrenalectomized rats pretreated with CDCA, then corticosterone", "result": "significant antinatriuresis"}, {"measurement": "inhibition of 5β-R (potency in words)", "setting": "5β-reductase (5β-R)", "result": "most potent inhibitor; also recorded: inhibit both 11β-OHSD and 5β-R activity"}]}
{"smiles": "CC1(C)[C@@H](OC(=O)CCC(=O)O)CC[C@]2(C)[C@H]3C(=O)C=C4[C@@H]5C[C@@](C)(C(=O)O)CC[C@]5(C)CC[C@@]4(C)[C@]3(C)CC[C@@H]12", "note": "[carbenoxolone sodium]", "values": [{"measurement": "effect on Na^+ retaining properties of aldosterone and deoxycorticosterone", "setting": "[2]", "result": "amplified the Na^+ retaining properties"}, {"measurement": "effect on glucocorticoids corticosterone and cortisol", "setting": "[2]", "result": "display minearlocorticoid like activity"}]}
{"smiles": "CC1(C)[C@@H](O)CC[C@]2(C)[C@H]3C(=O)C=C4[C@@H]5C[C@@](C)(C(=O)O)CC[C@]5(C)CC[C@@]4(C)[C@]3(C)CC[C@@H]12", "note": "[Glycyrrhetinic Acid]", "values": [{"measurement": "inhibition of steroid 5β-reductase", "setting": "steroid 5β-reductase", "result": "markedly inhibit"}, {"measurement": "inhibition of 11β-OHSD", "setting": "[3]", "result": "markedly inhibit"}]}
{"smiles": "CCC[C@@H]1CC2=CC(=O)CC[C@]2(C)[C@H]2CC[C@@]3(C)[C@@H](CC[C@@]3(O)CCC(=O)O)[C@H]12", "note": "[RU28318, reference compound]", "values": [{"measurement": "effect of antimineralocorticoid on the CDCA/corticosterone antinatriuresis", "setting": "adrenalectomized rats; adrenalectomized rats, CDCA + corticosterone", "result": "blocked"}]}
{"smiles": "C[C@]12CC[C@@H](O)C[C@H]1CC[C@@H]1[C@@H]2CC[C@]2(C)[C@@H](C(=O)CO)CC[C@@H]12", "note": "[3α,5β-THDOC, 3α,5β-tetrahydrodeoxycorticosterone]", "values": [{"measurement": "inhibition of 11β-OHSD (potency in words)", "setting": "[1]", "result": "most potent inhibitor; also recorded: inhibit both 11β-OHSD and 5β-R activity"}, {"measurement": "inhibition of 5β-R (potency in words)", "setting": "5β-reductase (5β-R)", "result": "most potent inhibitor; also recorded: inhibit both 11β-OHSD and 5β-R activity"}]}
{"smiles": "C[C@H](CCC(=O)O)[C@H]1CC[C@H]2[C@@H]3CC[C@@H]4C[C@H](O)CC[C@]4(C)[C@H]3CC[C@]12C", "note": "[LCA, lithocholic acid]", "values": [{"measurement": "inhibition of 11β-OHSD (potency in words)", "setting": "[1]", "result": "potent inhibitor; also recorded: inhibit both 11β-OHSD and 5β-R activity"}, {"measurement": "inhibition of 5β-R (potency in words)", "setting": "5β-reductase (5β-R)", "result": "weak inhibitors; also recorded: inhibit both 11β-OHSD and 5β-R activity"}]}
